{"source": "patent US20050043262A1", "about": "“Novel specific inhibitor of the cyclin kinase inhibitor p21Waf1/Cip1 and methods of using the inhibitor” (priority 2000, published 2005)", "key": {"cyclinE/cdk2": {"tested_on": "cyclinE/cdk2", "assay": "Cyclin E immunoprecipitation / cdk2 immunoblot in A431 cells", "assay_type": "cell-based, human", "details": "10 min to 6 hours of PDGF exposure", "from_the_text": "Cyclin/cdk interactions occur after growth factor stimulation and serve to integrate such responses with the CKIs and transmit them to the Rb/E2F systems, which leads to mitogenic signal transmission. The cyclin D1/cdk 4 interaction occurs early after growth factor stimulation (reviewed in (Arellano and Moreno, 1997 Int. J. Biochem. Cell Biol., 29, p. 559-573)), while the cyclinE/cdk2 interaction occurs late in G1 and is thought to have a role in triggering the actual onset of DNA replication after the cells have passed the restriction point (reviewed in (Sherr and Roberts, 1995: Genes Dev., 9, p. 1149-1163)). A431 cells were transfected with p21^Waf1/Cip1 antisense (SEQ. ID NO.:1) or sense (SEQ. ID NO.:2) oligodeoxynucleotide, allowed to grow overnight in serum-free media, and then stimulated for various times with PDGF-BB. The cells were subsequently immunoprecipitated with either cyclinD1 or cyclinE and immunoblotted with cdk4 or cdk2, respectively. A lysate sample, showing the mobility of the immunoprecipitated cdks, confirmed the identity of the cdks. A431 cells were transfected with antisense (SEQ. ID NO.:1) or sense p21^Waf1/Cip1 (SEQ. ID NO.:2) oligonucleotides. […]"}, "p21^Waf1/Cip1": {"tested_on": "p21^Waf1/Cip1", "assay": "PMA-induced p21 level by Western blot in A431 cells", "assay_type": "cell-based, human", "details": "200 nM oligodeoxynucleotide, PMA 100 ng/ml up to 6 hours", "method": "Western blots: Cells were grown to confluence in 6 cm culture dishes and serum deprived. After transfection and or treatment with appropriate agonist, the cells were washed with phosphate-buffered saline and lysed in lysis buffer and the supernatant was Western blotted as described (Weiss and Nuccitelli, 1992 J. Biol. Chem., 267, p. 5608-5613).\nPMA is a potent inducer of p21^Waf1/Cip1 in a variety of different cell lines (Huang et al., 1995 Proc. Natl. Acad. Sci. US.A., 92, p. 4793-4797; Michieli et al., 1994 Cancer Res., 54, p. 3391-3395) and was employed to examine p21^Waf1/Cip1 levels after antisense transfection and confirm efficacy of translation to attenuate p21^Waf1/Cip1 levels. A431 cells were transfected with 200 nM antisense p21^Waf1/Cip1 (SEQ. ID NO.:1) or sense p21^Waf1/Cip1 oligodeoxynucleotide (SEQ. ID NO.:2). After overnight incubation in serum-free medium, the cells were stimulated with PMA (100 ng/ml) for the times indicated, lysed, and the lysates were Western blotted with p21^Waf1/Cip1 or α-actin antibody."}, "bovine VSM cells": {"tested_on": "bovine VSM cells", "assay": "PDGF-BB-stimulated DNA synthesis in bovine VSM cells", "assay_type": "cell-based", "details": "bovine VSM cell line, various concentrations", "from_the_text": "Cell culture, DNA synthesis, and proliferation assays: Cultures of both A10 and A7r5 rat aortic VSM cells were obtained from American Type Culture Collection (Rockville Md.). Bovine aortic smooth muscle cells were supplied by Martha O'Donnell (O'Donnell and Owen, 1986 Proc Natl. Acad. Sci.US.A., 83, p. 6132-6136). All of the cell lines were maintained as described (Weiss et al., 1998 Am. J. Physiol., 274, p. C1521-C1529) and were used between passages 15 and 25. The cells were growth-arrested by placing them in serum-free quiescence medium, exposed to growth factors as indicated, and [^3H]thymidine incorporation assessed as previously described (Weiss and Nuccitelli, 1992a J. Biol. Chem., 267, p. 5608-5613). Cell proliferation was assessed by counting of adherent cells on 4 representative fields under 100× magnification in each of 3 wells per experimental condition.\nAntisense techniques were employed to examine the dependence of G1-phase progression on p21^Waf1/Cip1 in the VSM cell lines (Crooke, 1993 Antisense research and applications. Boca Raton, CRC.). […] DNA synthesis was assessed by [^3H]-thymidine incorporation and is expressed as mean ± s.e.m. of three wells per data point. […] After 18 hours of PDGF incubation, the cells were counted by examining representative fields at 100× magnification. The average number of cells in 4 random fields in each well was determined."}}, "data": [{"substance": "5′-GACATCACCAGGATCGGACAT-3′", "values": [{"measurement": "cyclinE/cdk2 association", "setting": "cyclinE/cdk2", "value": "no effect"}, {"measurement": "PMA-induced p21^Waf1/Cip1 levels", "setting": "p21^Waf1/Cip1", "value": "significant attenuation"}, {"measurement": "PDGF-stimulated DNA synthesis", "setting": "bovine VSM cells", "value": "a similar effect"}]}]}
